From US20050153932A1, “Controlled muscle relaxation” (priority 2003, published 2005)

Assays:
[1] = tested on: neuromuscular block in a patient; conditions: endotracheal intubation; cited from earlier work
[2] = tested on: M. adductor pollicis contractions; experiment: Vecuronium-induced block of M. adductor pollicis contractions (TOF stimulation) and effect of Org 25969 in anaesthetised Rhesus monkeys; assay type: in vivo, Rhesus monkey; conditions: for 0.50-0.90 TOF ratio interval / 25-75% recovery index / time to 25% recovery of T1 / time to 90% recovery of T1 / time to TOF ratio 0.90: spontaneous recovery
Experimental: • T1: first twitch: amplitude of the first response to TOF stimulation, expressed as percentage of control T1 (%). • T4/T1 ratio: the ratio of T4 over T1 (within one TOF stimulus) expressed as decimals.
Female Rhesus monkeys were starved overnight and sedated with 10 mg·kg^−1 ketamine i.m., followed by i.v. injection of 25 mg·kg^−1 pentobarbitone sodium and subsequent infusion of 5-10 mg·kg^−1hr^−1. The animals were intubated and ventilated with a mixture of oxygen and nitrous oxide (2:3), using a ventilator. The expired CO2 level was measured using a capnograph. The tidal volume was adjusted to obtain a CO2 level of approximately 4.5%. Oxygen saturation was measured via a probe on the earlobe using a pulse oxymeter. Blood pressure was measured non-invasively with a cuff placed on the tail. The ECG was recorded and heart rate was measured. Rectal temperature was measured and body temperature was kept at 37-38° C. using a heating blanket. The right hand and right arm of the animal were fixed to a frame using surgical tape. The thumb was connected to a force transducer. A pre-load of 200-500 mN was applied. Two needle electrode were placed near the N. ulnaris and the nerve was stimulated with train-of-four pulses (pulse duration: 2 ms, train-frequency: 0.07 Hz). At the end of the experiment, the animals were allowed to recover from anesthesia. Appropriate recovery care was given to all animals. Two groups of monkeys were used to assess the reversal effects of Org 25969 against the neuromuscular blocking agents rocuronium (Esmeron®/Zemuron®) and vecuronium (Norcuron®). In the first group, animals initially received an intravenous bolus injection of a 1×ED90 dose of rocuronium bromide to induce neuromuscular block, followed by spontaneous recovery of the twitches. After complete recovery of the twitches, each group received a second and larger 5×ED90 dose of rocuronium followed by spontaneous recovery in one subgroup, whereas the other subgroup received an intravenous bolus dose of 1150 nmol·kg^−1 Org 25969 as soon as all twitches had disappeared. In the vecuronium groups of animals, the same protocol was used, but rocuronium was replaced by vecuronium. Rocuronium bromide and vecuronium bromide were dissolved in a citric acid/phosphate/mannitol buffer (pH 4.0). Org 25969 was dissolved in saline.

[3] = 5× ED90 vecuronium, spontaneous recovery subgroup

| Structure (SMILES) | duration of action [1] [min] | onset [1] [min] | onset time ([2]; 1× ED90 vecuronium) [min] | 0.50-0.90 TOF ratio interval ([2]; 1× ED90 vecuronium) [min] | 25-75% recovery index ([2]; 1× ED90 vecuronium) [min] | time to 25% recovery of T1 ([2]; 1× ED90 vecuronium) [min] | time to 90% recovery of T1 ([2]; 1× ED90 vecuronium) [min] | time to TOF ratio 0.90 ([2]; 1× ED90 vecuronium) [min] | block ([2]; 1× ED90 vecuronium, Mean ± SEM, n = 4) [%] | 0.50-0.90 TOF ratio interval ([2]; 5× ED90 vecuronium) [min] | 25-75% recovery index ([2]; 5× ED90 vecuronium) [min] | time to 25% recovery of T1 ([2]; 5× ED90 vecuronium) [min] | time to 90% recovery of T1 ([2]; 5× ED90 vecuronium) [min] | time to TOF ratio 0.90 ([2]; 5× ED90 vecuronium) [min] | block [2, 3] [%] | onset time [2, 3] [min] |
| --- | --- | --- | --- | --- | --- | --- | --- | --- | --- | --- | --- | --- | --- | --- | --- | --- |
| C[N+](C)(C)CCOC(=O)CCC(=O)OCC[N+](C)(C)C [suxamethonium] | 5 to 8 | ~1 |  |  |  |  |  |  |  |  |  |  |  |  |  |  |
| CC(=O)O[C@H]1C[C@@H]2CC[C@@H]3[C@H](CC[C@@]4(C)[C@H]3C[C@H]([N+]3(C)CCCCC3)[C@@H]4OC(C)=O)[C@@]2(C)C[C@@H]1N1CCCCC1 [vecuronium, vecuronium bromide] |  |  | 4.3 ± 0.6 | 4.9 ± 0.5 | 5.4 ± 0.8 | 8.6 ± 1.0 | 18.1 ± 1.9 | 17.2 ± 1.6 | 91.5 ± 1.7 | 11.8 ± 1.3 | 9.6 ± 2.0 | 28.6 ± 2.8 | 44.0 ± 4.6 | 49.0 ± 4.7 | 100.0 ± 0.0 | 1.0 ± 0.1 |
